Measurements from patent US9096598B2 (Merck Sharp & Dohme Corp., priority 2011, dated 2015).

Key:
[1] = biological target: T1, JAK3 (Homo sapiens, UniProt P52333); assay: Jak Biochemical HTRF Assay (JAK3); conditions: recombinant purified GST-tagged catalytic domain, [ATP] 2.9 μM, values given as range classes
T1 construct: recombinant purified GST-tagged catalytic domain for each enzyme; purchased Invitrogen M4290
In short: (§1)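 GST-tagged recombinant catalytic domain and biotinylated peptide substrate were preincubated with compound for 30 min at room temperature in kinase buffer with 2 mM DTT and 0.05% BSA. ATP then started a 120 min reaction. Phosphopeptide was detected by HTRF (Eu-pY20/streptavidin-Dylight 650, 665/615 nm ratio), and IC50 came from a 4-parameter fit of percent inhibition.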

[2] = biological target: T2, JAK2 (Homo sapiens, UniProt O60674); assay: Jak Biochemical HTRF Assay (JAK2); conditions: recombinant purified GST-tagged catalytic domain, [ATP] 8.5 μM, values given as range classes
T2 construct: recombinant purified GST-tagged catalytic domain for each enzyme; purchased Invitrogen M4290
In short: as §1

T2 sequence (O60674 849-1124 limits assumed): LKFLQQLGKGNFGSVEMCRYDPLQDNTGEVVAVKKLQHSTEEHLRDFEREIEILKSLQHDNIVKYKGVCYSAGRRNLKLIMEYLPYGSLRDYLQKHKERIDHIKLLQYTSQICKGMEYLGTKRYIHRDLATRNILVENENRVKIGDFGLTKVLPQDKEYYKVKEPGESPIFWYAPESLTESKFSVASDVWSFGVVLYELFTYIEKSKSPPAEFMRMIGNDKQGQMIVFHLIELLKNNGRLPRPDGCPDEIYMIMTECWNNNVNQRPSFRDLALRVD
T1 sequence (P52333 822-1111 limits assumed): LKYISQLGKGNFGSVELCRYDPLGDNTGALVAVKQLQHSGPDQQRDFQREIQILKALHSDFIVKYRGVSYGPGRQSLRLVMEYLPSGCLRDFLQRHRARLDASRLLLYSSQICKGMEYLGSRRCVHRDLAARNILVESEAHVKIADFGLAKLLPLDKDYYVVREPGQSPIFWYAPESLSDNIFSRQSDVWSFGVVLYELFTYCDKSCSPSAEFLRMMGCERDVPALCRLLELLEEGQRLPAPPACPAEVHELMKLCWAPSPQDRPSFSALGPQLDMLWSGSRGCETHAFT

Structure (SMILES)	IC50 [1] [nM]	IC50 [2] [nM]
COCC(=O)Nc1cnc2[nH]cc(-c3cncc(N[C@H](C(=O)NCC(F)(F)F)C(C)C)c3)c2c1 [Example 5-8, N~2~-(5-{5-[(methoxyacetyl)amino]-1H-pyrrolo[2,3-b]pyridin-3-yl}pyridin-3-yl)-N-(2,2,2-trifluoroethyl)valinamide]	≤ 10	10 to 500
CC(C)NC(=O)Nc1cnc2[nH]cc(-c3cncc(N[C@H](C(=O)NCC(F)(F)F)C(C)C)c3)c2c1 [Example 6-1, N^2-(5-{5-[(propan-2-ylcarbamoyl)amino]-1H-pyrrolo[2,3-b]pyridin-3-yl}pyridin-3-yl)-N-(2,2,2-trifluoroethyl)valinamide]	≤ 10	10 to 500
CCCNC(=O)Nc1cnc2[nH]cc(-c3cncc(NC(C(=O)NCC(F)(F)F)C(C)C)c3)c2c1 (stereo not shown) [Example 6-2, N~2~-(5-{5-[(propylcarbamoyl)amino]-1H-pyrrolo[2,3-b]pylidin-3-yl}pyridin-3-yl)-N-(2,2,2-trifluoroethyl)valinamide]	≤ 10	10 to 500
CC(C)[C@H](Nc1cncc(-c2c[nH]c3ncc(NC(=O)Nc4ccc(F)cc4F)cc23)c1)C(=O)NCC(F)(F)F [Example 6-3, N~2~-[5-(5-{[(2,4-difluorophenyl)carbamoyl]amino}-1H-pyrrolo[2,3-b]pyridin-3-yl)pyridin-3-yl]-N-(2,2,2-trifluoroethyl)valinamide]	≤ 10	10 to 500
CC(C)C(Nc1cncc(-c2c[nH]c3ncc(NC(=O)N[C@@H](C)C(=O)O)cc23)c1)C(=O)NCC(F)(F)F (stereo partly shown) [Example 6-4, N-({3-[5-({2-methyl-1-[(2,2,2-trifluoroethyl)carbamoyl]propyl}amino)pyridin-3-yl]-1H-pyrrolo[2,3-b]pyridin-5-yl}carbamoyl)alanine]	≤ 10	10 to 500
CNC(=O)Nc1cnc2[nH]cc(-c3cncc(N[C@H](C(=O)NCC(F)(F)F)C(C)C)c3)c2c1 [Example 6-5, N~2~-(5-{5-[(methylcarbamoyl)amino]-1H-pyrrolo[2,3-b]pyridin-3-yl}pyridin-3-yl)-N-(2,2,2-trifluoroethyl)valinamide]	≤ 10	10 to 500
COC(=O)Nc1cnc2[nH]cc(-c3cncc(NC(C(=O)NCC(F)(F)F)C(C)C)c3)c2c1 (stereo not shown) [Example 7-1, Methyl {3-[5-({3-methyl-1-oxo-1-[(2,2,2-trifluoroethyl)amino]butan-2-yl}amino)pyridin-3-yl]-1H-pyrrolo[2,3-b]pyridin-5-yl}carbamate]	10 to 500	10 to 500
CCOC(=O)Nc1cnc2[nH]cc(-c3cncc(NC(C(=O)NCC(F)(F)F)C(C)C)c3)c2c1 (stereo not shown) [Example 7-2, ethyl {3-[5-({2-methyl-1-[(2,2,2-trifluoroethyl)carbamoyl]propyl}amino)pyridin-3-yl]-1H-pyrrolo[2,3-b]pyridin-5-yl}carbamate]	10 to 500	10 to 500
CC(C)OC(=O)Nc1cnc2[nH]cc(-c3cncc(NC(C(=O)NCC(F)(F)F)C(C)C)c3)c2c1 (stereo not shown) [Example 7-3, 1-methylethyl {3-[5-({2-methyl-1-[(2,2,2-trifluoroethyl)carbamoyl]propyl}amino)pyridin-3-yl]-1H-pyrrolo[2,3-b]pyridin-5-yl}carbamate]	10 to 500	10 to 500
CC(C)[C@H](Nc1cncc(-c2c[nH]c3ncc(-c4cnn(C)c4)cc23)c1)C(=O)NCC(F)(F)F [Example 8-2, N^2-{5-[5-(1-methyl-1H-pyrazol-4-yl)-1H-pyrrolo[2,3-b]pyridin-3-yl]pyridin-3-yl}-N-(2,2,2-trifluoroethyl)-L-valinamide]	10 to 500	10 to 500
CC(C)[C@@H](Nc1cncc(-c2c[nH]c3ncc(-c4cnn(C)c4)cc23)c1)C(=O)NCC(F)(F)F [Example 8-3, N^2-{5-[5-(1-methyl-1H-pyrazol-4-yl)-1H-pyrrolo[2,3-b]pyridin-3-yl]pyridin-3-yl}-N-(2,2,2-trifluoroethyl)-D-valinamide]	≤ 10	≤ 10
CC(C)[C@@H](Nc1cncc(-c2c[nH]c3ncc(COCCN4CCCC4)cc23)c1)C(=O)NCC(F)(F)F [Example 9-1, (R)-3-methyl-2-(5-(5-((2-(pyrrolidin-1-yl)ethoxy)methyl)-1H-pyrrolo[2,3-b]pyridin-3-yl)pyridin-3-ylamino)-N-(2,2,2-trifluoroethyl)butanamide]	10 to 500	10 to 500
CC(C)[C@@H](Nc1cncc(-c2c[nH]c3ncc(COC(C)(C)C)cc23)c1)C(=O)NCC(F)(F)F [Example 9-2, N~2~-{5-[5-(tert-butoxymethyl)-1H-pyrrolo[2,3-b]pyridin-3-yl]pyridin-3-yl}-N-(2,2,2-trifluoroethyl)-D-valinamide]	10 to 500	10 to 500
CC(C)[C@@H](Nc1cncc(-c2c[nH]c3ncc(COCCN4CCN(C(=O)OC(C)(C)C)CC4)cc23)c1)C(=O)NCC(F)(F)F [Example 9-3, tert-butyl 4-[2-({3-[5-({(1R)-2-methyl-1-[(2,2,2-trifluoroethyl)carbamoyl]propyl}amino)pyridin-3-yl]-1H-pyrrolo[2,3-b]pyridin-5-yl}methoxy)ethyl]piper-azine-1-carboxylate]	≤ 10	10 to 500
CC(C)[C@@H](Nc1cncc(-c2c[nH]c3ncc(COCCN4CCOCC4)cc23)c1)C(=O)NCC(F)(F)F [Example 9-4, N~2~-(5-{5-[(2-morpholin-4-ylethoxy)methyl]-1H-pyrrolo[2,3-b]pyridin-3-yl}pyridin-3-yl)-N-(2,2,2-trifluoroethyl)-D-valinamide]	≤ 10	10 to 500
C=CCOCc1cnc2[nH]cc(-c3cncc(N[C@@H](C(=O)NCC(F)(F)F)C(C)C)c3)c2c1 [Example 9-5, N~2~-(5-{5-[(prop-2-en-1-yloxy)methyl]-1H-pyrrolo[2,3-b]pyridin-3-yl}pyridin-3-yl)-N-(2,2,2-trifluoroethyl)-D-valinamide]	≤ 10	10 to 500
CC(C)[C@@H](Nc1cncc(-c2c[nH]c3ncc(COC4CCN(C(=O)OC(C)(C)C)CC4)cc23)c1)C(=O)NCC(F)(F)F [Example 9-6, tert-butyl 4-({3-[5-({(1R)-2-methyl-1-[(2,2,2-trifluoroethy)carbamoyl]propyl}amino)pyridin-3-yl]-1H-pyrrolo[2,3-b]pyridin-5-yl}methoxy)piperidine-1-carboxylate]	≤ 10	10 to 500
CC(C)[C@@H](Nc1cncc(-c2c[nH]c3ncc(CN4CCCC4)cc23)c1)C(=O)NCC(F)(F)F [Example 9-7, N~2~-{5-[5-(pyrrolidin-1-ylmethyl)-1H-pyrrolo[2,3-b]pyridin-3-yl]pyridin-3-yl}-N-(2,2,2-trifluoroethyl)-D-valinamide]	10 to 500	10 to 500
COCc1cnc2[nH]cc(-c3nncc(N[C@@H](C(=O)NCC(F)(F)F)C(C)C)n3)c2c1 [Example 9-8, N~2~-{3-[5-(methoxymethyl)-1H-pyrrolo[2,3-b]pyridin-3-yl]-1,2,4-triazin-5-yl}-N-(2,2,2-trifluoroethyl)-D-valinamide]	10 to 500	10 to 500
COCc1cnc2[nH]cc(-c3cncc(N[C@@H](C(=O)NCC(F)(F)F)C(C)C)c3)c2c1 [Example 9-9, N~2~-{5-[5-(methoxymethyl)-1H-pyrrolo[2,3-b]pyridin-3-yl]pyridin-3-yl}-N-(2,2,2-trifluoroethyl)-D-valinamide]	≤ 10	10 to 500
CC(C)C(Nc1cncc(-c2c[nH]c3ncc(CNC(=O)C4CCCC4)cc23)c1)C(=O)NCC(F)(F)F (stereo not shown) [Example 10-1, N-((3-(5-(3-methyl-1-oxo-1-(2,2,2-trifluoroethylamino)butan-2-ylamino)pyridin-3-yl)-1H-pyrrolo[2,3-b]pyridin-5-yl)methyl)cyclopentanecarboxamide]	10 to 500	> 500
CCC(=O)NCc1cnc2[nH]cc(-c3cncc(N[C@H](C(=O)NCC(F)(F)F)C(C)C)c3)c2c1 [Example 10-2, N~2~-(5-{5-[(propanoylamino)methyl]-1H-pyrrolo[2,3-b]pyridin-3-yl}pyridin-3-yl)-N-(2,2,2-trifluoroethyl)valinamide]	10 to 500	> 500
CC(C)C(Nc1cncc(-c2c[nH]c3ncc(CNC(=O)C4CCCCC4)cc23)c1)C(=O)NCC(F)(F)F (stereo not shown) [Example 10-3, N-({3-[5-({2-methyl-1-[(2,2,2-trifluoroethyl)carbamoyl]prop-yl}amino)pyridin-3-yl]-1H-pyrrolo[2,3-b]pyridin-5-yl}methyl)cyclohexanecar-boxamide]	10 to 500	> 500
C/C=C/C(=O)NCc1cnc2[nH]cc(-c3cncc(N[C@H](C(=O)NCC(F)(F)F)C(C)C)c3)c2c1 [Example 10-4, N~2~-[5-(5-{[(2E)-but-2-enoylamino]methyl}-1H-pyrrolo[2,3-b]pyridin-3-yl)pyridin-3-yl]-N-(2,2,2-trifluoroethyl)valinamide]	≤ 10	10 to 500
CC(=O)NCc1cnc2[nH]cc(-c3cncc(N[C@H](C(=O)NCC(F)(F)F)C(C)C)c3)c2c1 [Example 10-5, N~2~-(5-{5-[(acetylamino)methyl]-1H-pyrrolo[2,3-b]pyridin-3-yl}pyridin-3-yl)-N-(2,2,2-trifluoroethyl)valinamide]	10 to 500	> 500
CC(C)[C@H](Nc1cncc(-c2c[nH]c3ncc(CNC(=O)C4CC4)cc23)c1)C(=O)NCC(F)(F)F [Example 10-6, N~2~-[5-(5-{[(cyclopropylcarbonyl)amino]methyl}-1H-pyrrolo[2,3-b]pyridin-3-yl)pyridin-3-yl]-N-(2,2,2-trifluoroethyl)valinamide]	≤ 10	10 to 500
